These results are taken from patent publication US6407103B2, “Indeno [1,2-c] pyrazol-4-ones and their uses” (Bristol-Myers Squibb Pharma Company, priority 1998, dated 2002).

Usually melting point stands for the temperature, or range, at which the solid turns liquid.

The compound `COc1ccc(-c2[nH]nc3c2C(=O)c2c(NC(=O)CN4CCN(CCO)CC4)cccc2-3)cc1` [Example XXVIII, 3-(4-methoxyphenyl)-5-(4-(2-hydroxyethyl)piperazinoacetamido)indeno[1,2-c]pyrazol-4-one] came in with a melting point of more than 300 °C.

`COc1ccc(-c2[nH]nc3c2C(=O)c2c(NC(=O)CN4CCC(CN)CC4)cccc2-3)cc1` [Example XXX, 3-(4-methoxyphenyl)-5-(4-(aminomethyl)piperidinoacetamido)indeno[1,2-c]pyrazol-4-one] came in with a melting point of more than 300 °C.

The compound `CCNCC(=O)Nc1cccc2c1C(=O)c1c-2n[nH]c1-c1ccc(OC)cc1` [Example XXXI, 3-(4-methoxyphenyl)-5-(ethylaminoacetamido)indeno[1,2-c]pyrazol-4-one] displayed a melting point of 250 °C.

The compound `COc1ccc(-c2[nH]nc3c2C(=O)c2c(NC(=O)CN4CCSCC4)cccc2-3)cc1` [Example XXXII, 3-(4-methoxyphenyl)-5-(thiomorpholinoacetamido)indeno[1,2-c]pyrazol-4-one] had a melting point of 298 °C.

`COc1ccc(-c2[nH]nc3c2C(=O)c2c(NC(=O)CN4CCOCC4)cccc2-3)cc1` [Example XXXIII, 3-(4-methoxyphenyl)-5-(morpholinoacetamido)indeno[1,2-c]pyrazol-4-one] registered a melting point of 295 °C.

`COc1ccc(-c2[nH]nc3c2C(=O)c2c(NC(=O)CN4CCCC4)cccc2-3)cc1` [Example XXXIV, 3-(4-methoxyphenyl)-5-(pyrrolidinoacetamido)indeno[1,2-c]pyrazol-4-one] showed a melting point of 279 °C.

As for `COc1ccc(-c2[nH]nc3c2C(=O)c2c(NC(=O)Cc4ccc(NC(=O)CN(C)C)cc4)cccc2-3)cc1` [Example XXXIX, 3-(4-methoxyphenyl)-5-((4-((N,N-dimethylamino)methylcarbonylamino)phenyl)acetamido) indeno[1,2-c]pyrazol-4-one], the melting point is more than 300 °C.

Take `COc1ccc(-c2[nH]nc3c2C(=O)c2c(NC(=O)Cc4ccc(NC(C)=O)cc4)cccc2-3)cc1` [Example XXXVI, 3-(4-methoxyphenyl)-5-((4-acetamidophenyl)acetamido)indeno[1,2-c]pyrazol-4-one]: the melting point amounted to 268 °C.

Compound `COC(=O)Nc1ccc(CC(=O)Nc2cccc3c2C(=O)c2c-3n[nH]c2-c2ccc(OC)cc2)cc1` [Example XXXVII, 3-(4-methoxyphenyl)-5-((4-(methoxycarbonylamino)phenyl)acetamido) indeno[1,2-c]pyrazol-4-one] had a melting point of 257 °C.

Compound `COc1ccc(-c2[nH]nc3c2C(=O)c2c(NC(=O)Cc4ccc(NC(=O)CN)cc4)cccc2-3)cc1` [Example XXXVIII, 3-(4-methoxyphenyl)-5-((4-(aminomethylcarbonylamino)phenyl)acetamido) indeno[1,2-c]pyrazol-4-one] registered a melting point of 228 °C.
